Where a name gives a salt, the structure may show the parent alone.
Key:
[1] = biological target: α7-subtype of nicotinic receptors (Rattus norvegicus, UniProt Q05941); assay: biochemical; type: binding
Sequence of α7-subtype of nicotinic receptors (Q05941 23-502): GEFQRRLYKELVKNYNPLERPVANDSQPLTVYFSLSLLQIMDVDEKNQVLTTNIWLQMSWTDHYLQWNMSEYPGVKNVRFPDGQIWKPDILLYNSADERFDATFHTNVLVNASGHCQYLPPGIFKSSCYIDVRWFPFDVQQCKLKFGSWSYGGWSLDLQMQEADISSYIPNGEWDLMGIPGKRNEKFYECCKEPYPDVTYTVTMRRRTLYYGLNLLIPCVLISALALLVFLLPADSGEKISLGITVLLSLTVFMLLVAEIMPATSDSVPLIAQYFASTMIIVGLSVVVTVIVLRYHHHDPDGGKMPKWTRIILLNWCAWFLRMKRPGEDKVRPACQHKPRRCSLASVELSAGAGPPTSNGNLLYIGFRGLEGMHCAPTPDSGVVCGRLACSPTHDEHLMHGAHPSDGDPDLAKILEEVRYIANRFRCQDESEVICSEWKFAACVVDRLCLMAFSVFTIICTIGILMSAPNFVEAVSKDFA

| Structure (SMILES) | IC50 [1] [µM] | melting point [°C] |
| --- | --- | --- |
| CCN1C2CCCC1CN(c1ccc(-c3ccccc3)nn1)C2 [Compound D1, 9-Ethyl-3-(6-phenyl-pyridazin-3-yl)-3,9-diaza-bicyclo[3.3.1]nonane] | < 1 | – |
| CN1C2CCCC1CN(c1ccc(-c3ccsc3)nn1)C2 [Compound C1] | < 1 | – |
| CN1C2CCCC1CN(c1ccc(-c3ccccc3)nn1)C2 (as salt: fumaric acid salt) [Compound A1, 9-Methyl-3-(6-phenyl-pyridazin-3-yl)-3,9-diaza-bicyclo[3.3.1]nonane] | – | 187 to 188 |
| CN1C2CCCC1CN(c1ccc(-c3ccccc3)nn1)C2 [Compound A1, 9-Methyl-3-(6-phenyl-pyridazin-3-yl)-3,9-diaza-bicyclo[3.3.1]nonane] | < 1 | – |

— patent US8173658B2 (priority 2005, dated 2012)
